This is an account of results in patent US11066368B2, “Process for the preparation and particle size reduction of pirfenidone” (Laurus Labs Limited, priority 2016, dated 2021).

Series [1] in a line: Minimum ignition energy test by MIKE3. It counts as physicochemical. To be noted: dust cloud, dried at 50° C., sieved through 63μ. On the procedure:
This test was performed based on international test method VDI 2263 part 1.2.5 using MIKE3. Pirfenidone was dried at 50° C. under vacuum, sieved through 63μ sieve. The product was converted into a dust cloud in glass cylindrical tube with compressed air. The spark for ignition was provided with moving electrodes assembly at different energy levels from 1 mJ to 1000 mJ. The energy just sufficient to ignite the dust under ignition was determined. This ignition energy was then successively halved with variation of the dust concentration and the ignition delay time in a series of tests until no ignition takes place in at least 10 successive experiments. The minimum ignition energy MIE lies between the lowest energy value at which ignition occurred and at the energy value at which no ignition observed for 10 successive experiments. The recommendations for interpreting MIE results are based on energy levels available on MIKE 3 apparatus. According to usual practice, MIE can be ranked as follow: […]

Series [2] is described as follows: Particle size (D90) after ethyl acetate / n-heptane anti-solvent crystallisation. Format: physicochemical. On the procedure: The addition of antisolvent at different temperatures leads to formation of pirfenidone particles with different sizes; for instance: anti solvent addition at 0 to −10° C., preferably at −5±2° C. temperature forms small particles (D90: 50-100μ), at 0 to 10° C., preferably at 7±3° C. temperature forms particles of D90 at 100-150μ and at below 45° C. forms particles of D90 at 250-500μ.
Pirfenidone (83 g) was dissolved in ethyl acetate (425 mL), at 55-65° C., and then added to pre-cooled (−5±2° C.) n-Heptane (425 mL), over a period of 15-20 min, while maintaining temperature below 20° C. The suspension was stirred, at 0-5° C., for 1-2 h; filtered the product washed with chilled ethyl acetate (50 mL). The wet material was dried, at 60° C., under vacuum, for 6-8 h, to afford Pirfenidone as white colored powder. Yield: 65 g, HPLC purity 99.9%, PSD: (D90) 50-100μ.
Pirfenidone (81 g) was dissolved in ethyl acetate (425 mL), at 55-65° C., and then added to pre-cooled (7±3° C.) n-Heptane (425 mL), over a period of 15-20 min, while maintaining temperature below 20° C. The suspension was stirred, at 0-5° C., for 1-2 h; filtered the product washed with chilled ethyl acetate (50 mL). The wet material was dried, at 60° C., under vacuum, for 6-8 h, to afford Pirfenidone as white colored powder Yield: 61 g, HPLC purity 99.9%, PSD: (D90) 100-150μ.
Pirfenidone (81 g) was dissolved in ethyl acetate (500 mL), at 50-55° C., and then added to pre-cooled (8±3° C.) n-Heptane (500 mL), over a period of 15-20 min, while maintaining temperature below 25° C. The suspension was stirred, at 5-10° C., for 1-2 h; filtered the product washed with chilled ethyl acetate (50 mL). The wet material was dried, at 60° C., under vacuum, for 6-8 h, to afford Pirfenidone as white colored powder Yield: 57 g, HPLC purity 99.9%, PSD: (D90) 150-250μ.
Pirfenidone (80 g) was dissolved in ethyl acetate (400 mL), at 55-65° C., and then added to n-Heptane (400 mL), over a period of 5-10 min, while maintaining temperature below 45° C. The suspension was stirred, at 25-30° C., for 1-2 h; filtered the product washed with chilled ethyl acetate (50 mL). The wet material was dried, at 60° C., under vacuum, for 6-8 h, to afford Pirfenidone as white colored powder, Yield: 55 g, HPLC purity 99.9%, PSD: (D90) 250-500μ.

Series [3] can be described thus: Particle size distribution after ultra sonication by sonoprocessor (RTUL 10SP-20-3000-SD). To be noted: ultra sonication in water. Format: physicochemical. On the procedure: As used herein, the term “particle size distribution” is expressed in terms of D90, D50 and D10, which corresponds to the diameter of 90 percent by volume of the particles, 50 percent by volume of the particles and 10 percent by volume of the particles are present, respectively.
The particle size distribution of pirfenidone is measured utilizing: Instrument model: Malvern; Mastersizer 3000; particle refraction index of sample: 1.700; Absorption: 0.01 and Analysis model: general purpose, normal sensitivity, non-spherical particles.
Water (300 mL) and Pirfenidone (200 gr; Particle size distribution: D10: 1330 μm; D50: 1950 μm and D90: 2840 μm) were charged into reaction vessel at 25° C. to 35° C. and was placed Sonoprocessor into the reaction mass till required particle size was obtained at 25° C. to 35° C. Particle size distribution of the sample with different time interval was monitored by collecting the sample from reaction mass. After achieving the required particle size, stirred the reaction mixture for 30-60 min at 25° C. to 35° C. Further, the reaction mixture temperature was allowed to cool to 0° C. to 5° C. and stirred for 2-3 hrs at same temperature. Filter the solid and washed the wet cake with chilled water (100 mL), dried the solid in an oven under vacuum at 60° C. for 4-6 hours.
The following examples were performed using the above described process with different rpm and time; the obtained results are tabulated below: […]

The conditions of series [4]: milled through a loop mill, US 8,519,140; cited from earlier work.

The compound `Cc1ccc(=O)n(-c2ccccc2)c1` [Pirfenidone, 5-methyl-1-phenyl-2-1(H)-pyridone] returned an Es in series [1] of 1.7 mJ. Further, the “Minimum ignition energy MIE” value in series [1] amounted to 1.7 mJ. Further, the “PSD: (D90)” value in series [2] (Example 5: ethyl acetate solution, n-heptane anti-solvent at −5±2° C.) is 50-100 μ; in series [2] (Example 6: ethyl acetate solution, n-heptane anti-solvent at 7±3° C.), 100-150 μ; in series [2] (Example 7: ethyl acetate solution, n-heptane anti-solvent at 8±3° C., temperature below 25° C.), 150-250 μ; in series [2] (Example 8: ethyl acetate solution, n-heptane anti-solvent, temperature below 45° C.) it was 250-500 μ. Also, the “PSD D10” value in series [3] (sonication time 30 min) came out at 44 μm; in series [3] (sonication time 60 min), 26 μm; in series [3] (sonication time 120 min) it was 19 μm; in series [3] (sonication time 180 min), 13 μm. Also, the “PSD D50” value was 145 μm in series [3] (sonication time 30 min), 101 μm in series [3] (sonication time 60 min), 68 μm in series [3] (sonication time 120 min) and 48 μm in series [3] (sonication time 180 min). Moreover, the “PSD D90” value in series [3] (sonication time 30 min) came to 245 μm; in series [3] (sonication time 60 min) it was 189 μm; in series [3] (sonication time 120 min), 150 μm; in series [3] (sonication time 180 min), 109 μm. The particle size result in series [4] is given as “less than 150 μm”.
